Literature values in paper PMC6265740, “Biochemical and Anti-Triple Negative Metastatic Breast Tumor Cell Properties of Psammaplins” (Marine Drugs, 2018).

Legend:
MDA-MB-231 [1] = system: MDA-MB-231; set-up: method as in PMID 28574600; conditions: in vitro ref 38; cited from earlier work
MDA-MB-231 [2] = system: MDA-MB-231; set-up: method as in PMID 28574600; conditions: embryonic zebrafish, xenografts, and orthotopic tumor models ref 38; cited from earlier work
SIRT1 = system: SIRT1; set-up: method as in PMID 25445714, PMID 27537898; conditions: breast tumor cells ref 36,37; cited from earlier work

SMILES: C=CCSSSCC=C [Garlic diallyl trisulfide, diallyl trisulfide]
- MDA-MB-231 migration and angiogenesis (MDA-MB-231 [1]): inhibited MDA-MB-231 migration and angiogenesis
- MDA-MB-231 metastatic potential (MDA-MB-231 [2]): suppress MDA-MB-231 metastatic potential

SMILES: O=C(NCCSSCCNC(=O)/C(Cc1ccc(O)c(Br)c1)=N/O)/C(Cc1ccc(O)c(Br)c1)=N/O [Psammaplin A]
- SIRT1 enzyme expression and activity (SIRT1): decreased SIRT1 enzyme expression and activity
